A value given as a limit tells only on which side of the number the result lay.

Broadly, the IC50 is the concentration that gives 50% inhibition. Read a high IC50 as a need for much substance. The inhibition is the relative decrease from the control value, in per cent.

Test [1] in a line: Inhibition of Rickettsia prowazekii Methionine aminopeptidase 1. In kind it is single protein.
The next test relates to Rickettsia prowazekii. Kind of test: Inhibition of Rickettsia prowazekii Methionine aminopeptidase 1 at 10 uM relative to control.

The compound `Cc1ccc(N2C3c4ccccc4N(S(=O)(=O)c4ccc(C)cc4)C2c2ccccc2N3S(=O)(=O)c2ccc(C)cc2)cc1` returned an IC50 in test [1] of 0.8 µM. In addition, in the test on Rickettsia prowazekii, the inhibition is over 50%.

In test [1], `CCCc1c(CC)c(=N)c2ccccc2n1C` came in with an IC50 of 1.6 µM. In the test with Rickettsia prowazekii, this compound had an inhibition of over 50%.

On to `O=C(NCC(c1ccsc1)N1CCCCCC1)c1ccc(C(F)(F)F)cc1` (stereo not given), for which, in test [1], the IC50 worked out at 15 µM. In the test with Rickettsia prowazekii, this compound displayed an inhibition of over 50%.

Turning to `O=C(O)c1ccc(-c2ccccc2Cl)o1`, in test [1], the concentration for half-maximal inhibition (IC50) stood at 2.4 µM.

In test [1], `CCn1c(CN2CCN(Cc3ccccc3)CC2)nc2cc(NC(=O)c3cccs3)ccc21` had a half-maximal inhibitory concentration (IC50) of 9 µM. For the same compound, the inhibition with Rickettsia prowazekii was over 50%.

`COc1ccc(/C=C2\SC(=N)N(c3ccccc3OC)C2=O)cc1` yielded a half-maximal inhibitory concentration (IC50) in test [1] of 4.4 µM. Besides, the inhibition in the test with Rickettsia prowazekii is over 50%.

In test [1], `c1ccc(Cn2c(/N=N/c3c(Nc4ccccc4)ccc4ccccc34)nc3ccccc32)cc1` came in with a half-maximal inhibitory concentration (IC50) of 1.9 µM. The inhibition with Rickettsia prowazekii was over 50%.

Consider `CC(C)OCc1cc(CN2CCN(c3cccc(Cl)c3)CC2)c(O)c2ncccc12`, for which the concentration for half-maximal inhibition (IC50) in test [1] turned out to be 3.8 µM. This compound also showed an inhibition with Rickettsia prowazekii of over 50%.

In the case of `COc1cccc(NC(=O)[C@H](C(C)C)n2c(=O)[nH]c3ccccc3c2=O)c1`, 22 µM corresponded to half-maximal inhibition in test [1] (IC50). Besides, in the test on Rickettsia prowazekii, the inhibition is over 50%.

Consider `O=C(NC(c1ccccc1)c1ccc2cccnc2c1O)c1ccccc1` (stereo not given), for which 12 µM corresponded to half-maximal inhibition in test [1] (IC50). Moreover, the inhibition with Rickettsia prowazekii is over 50%.

`COc1ccc(-c2c(C)nn3c(N)c(C#N)cnc23)cc1OC` had an IC50 in test [1] of 9 µM. Moreover, the inhibition in the test with Rickettsia prowazekii is over 50%.

In the case of `CSC1=N/C(=N\c2c(C)cccc2C)C2(CCC(C(C)(C)C)CC2)N1c1ccc(Cl)cc1` (stereo not given), in test [1], the IC50 amounted to 9 µM. For the same compound, the inhibition in the test on Rickettsia prowazekii is over 50%.

In turn, `COc1ccc(C2=C(c3ccc(OC)cc3)C3(c4ccccc4)C(=O)C2(c2ccccc2)C2C(=O)N(c4ccc(C)cc4)C(=O)C23)cc1` (stereo not given) displayed an IC50 in test [1] of 4 µM. Further, the inhibition in the test on Rickettsia prowazekii was over 50%.

Values taken from ChEMBL document CHEMBL5257084, “Novel inhibitors of Rickettsia prowazekii methionine aminopeptidase from the Malaria Box” (Bioorg Med Chem Lett, 2023).
